Tests used:
PIP4K 2A = molecular target: T1, PIP4K 2A (Homo sapiens, UniProt P48426); assay: ADP-glo kinase assay PIP4K 2A; type: biochemical; set-up: 4 nM PIP4K2A (full length protein, SignalChem); purchased SignalChem; details: compounds listed under IC50 bin headings
T1 sequence (P48426 1-406): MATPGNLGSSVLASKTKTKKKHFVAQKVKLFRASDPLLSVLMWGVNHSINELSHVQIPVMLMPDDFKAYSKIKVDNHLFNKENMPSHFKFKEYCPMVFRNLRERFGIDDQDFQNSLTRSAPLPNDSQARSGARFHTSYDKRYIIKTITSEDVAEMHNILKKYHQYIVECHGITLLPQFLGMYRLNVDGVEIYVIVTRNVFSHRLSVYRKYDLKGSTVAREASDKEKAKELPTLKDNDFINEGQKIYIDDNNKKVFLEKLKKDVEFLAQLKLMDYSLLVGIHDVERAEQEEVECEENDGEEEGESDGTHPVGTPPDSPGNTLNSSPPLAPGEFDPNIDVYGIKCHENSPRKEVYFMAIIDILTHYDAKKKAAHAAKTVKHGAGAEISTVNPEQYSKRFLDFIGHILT
Description: Dilution series of the compounds were prepared in DMSO at 100 times the final assay concentration (n1=n0/3 in 10 points). The compounds were further diluted to three times the assay concentration in assay buffer (20 mM MOPS pH 7.2, 25 mM magnesium chloride, 0.005% Tween 20). 6 μL of the diluted compounds were added to a 384 well assay plate followed by 9 μL of a mix consisting of 4 nM PIP4K2A (full length protein, SignalChem) and 100 μM PI(5)P diC8 (Tebu-Bio). Enzyme and compounds were pre-incubated at room temperature for 15 minutes.
Then 3 μL of a solution containing 60 μM ATP (Promega) in assay buffer was added to the wells containing compound and enzyme and mixing was performed by pipetting several times. The reaction was incubated at room temperature for 1 h. Then 18 μL of ADP-Glo™ Reagent (Promega) was added to stop the kinase reaction and deplete the unconsumed ATP, mixing was performed by pipetting several times. The plate was incubated at room temperature for 40 minutes before addition of 36 μL of Kinase Detection Reagent (Promega) to convert ADP to ATP and introduce luciferase and luciferin to detect ATP. The reaction was incubated at room temperature for 40 minutes before the luminescence was measured in a in a Victor 3V 1420 multilabel counter (Perkin Elmer).
Percent inhibition of the compounds as compared to dimethyl sulfoxide treated control samples was calculated. Compound concentration versus percent inhibition were fitted to generate IC50 values.

PIP4K2B = molecular target: T2, PIP4K2B (Homo sapiens, UniProt P78356); assay: Trans-FI P kinase assay PIP4K2B (PIP4KtypeIIB inhibition assay); type: biochemical; details: compounds listed under IC50 bin headings; 100 uM GTP; read-out: Trans-FI P kinase assays: PIP4K2B IC50
T2 construct: made in house; host or cells: E. coli
T2 sequence (P78356 1-416): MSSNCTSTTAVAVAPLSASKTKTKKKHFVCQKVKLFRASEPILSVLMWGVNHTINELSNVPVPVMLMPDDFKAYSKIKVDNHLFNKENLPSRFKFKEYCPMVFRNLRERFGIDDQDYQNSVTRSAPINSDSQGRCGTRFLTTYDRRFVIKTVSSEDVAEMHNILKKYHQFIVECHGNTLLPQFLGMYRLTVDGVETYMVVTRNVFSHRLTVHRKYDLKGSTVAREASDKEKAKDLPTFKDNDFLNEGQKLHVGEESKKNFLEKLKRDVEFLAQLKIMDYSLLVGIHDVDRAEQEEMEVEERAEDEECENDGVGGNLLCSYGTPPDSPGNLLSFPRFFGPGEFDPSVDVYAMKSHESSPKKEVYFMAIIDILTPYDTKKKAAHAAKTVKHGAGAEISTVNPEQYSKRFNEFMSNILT
Description: GST tagged PIP4KtypeIIA and B enzymes were overexpressed in E. Coli and purified to >80% homogeneity. Phosphatidyl inositol-5-phosphate (PI5P, Cat. #850152, Avanti Polar Lipids Inc.) was used as the lipid substrate and phosphatidyl ethanolamine (DOPE 18:1, Cat. #850725, Avanti Polar Lipids Inc.) was used as the carrier lipid for assays. Ultrapure ATP and GTP was purchased from Bellbrooke Labs. ADP Glo reagents were obtained from Promega. Transcreener FI reagent was obtained from Bellbrooke labs.
GST-tagged PIP4KtypeIIB (3.4 uL, 2.77 mg/mL) was diluted to 5 mL using HNE buffer to yield 5× enzyme stock (25 nM)
Lipid Preparation: In a 10 mL pyrex glass vial, 1 ug of PI5P and 1 ug of DOPE were suspended in 2.5 mL of HEPES buffer mix and 2.5 mL of H:E buffer. The contents were mixed and sonicated for 3 min to yield a translucent lipid stock.
Compound Preparation: Compounds were stored as 5 mM stocks in neat DMSO as room temperature in glass vials. 5 mM stocks were diluted to 2 mM and then serially diluted (3×) in neat DMSO in 96 well polypropylene plates. From the serially diluted stocks, 3 uL was delivered into 250 uL of 25% DMSO (in water) to generate 5× compound stocks. Typically, the highest compound conc. was 24 uM.
The assay volume was kept at 25 uL. To each well of the reaction plate, 10 uL of lipid stock (1:1 ratio PI5P:DOPE) was delivered. This was followed by the addition of 5 uL of compound in 25% DMSO. Then, to each well, 5 uL of 25 nM (5×) typeIIB enzyme was delivered. The contents were mixed well and incubated for 1 h at 27 C. After 1 h, reaction was initiated by adding 5 uL of 500 uM GTP and the contents were mixed well with a multi-channel pipetteman. The final concentration of the reagents are as follows: 50 mM HEPES, pH 7.3, 10 mM MgCl2, 20 mM NaCl, 0.01% v/v triton-X100, 5% DMSO, 100 uM GTP, 80 uM (2 ug) PI5P, 2 ug DOPE, and 5 nM PIP4KIIB Typically, the highest conc. of compounds was 4.8 uM and the lowest conc. was 0.
After 2 h, the reaction was quenched by adding 25 uL of transcreener FI reagent. The contents were incubated at RT for 1 h and the Fluorescence (Ex: 584 Em: 623) was read using Molecular Devices Paradigm plate reader. […] The blanks were averaged and subtracted from all other wells. Using a calibration curve, RFU was converted to uM GDP (product). IC50 was calculated by plotting the residual activity (expressed as % No inhibitor control) vs. log [Inh. conc.]

SMILES	IC50 (PIP4K 2A) [nM]	IC50 (PIP4K2B) [nM]
CC1Oc2cc(N3CCCC3=O)ccc2-c2cnc(Nc3cncc(NC(=O)C4CCCO4)c3)cc21 (stereo not drawn) [Example 135, N-(5-((5-methyl-8-(2-oxopyrrolidin-1-yl)-5H-chromeno[4,3-c]pyridin-3-yl)amino)pyridin-3-yl)tetrahydrofuran-2-carboxamide]	1 to 10	10 to 100
CC1Oc2cc(N3CCCC3=O)ccc2-c2cnc(Nc3cnc4c(c3)N3C(=O)CC[C@@H]3CO4)cc21 (stereo partly drawn) [Example 180, (6aR)-2-((5-methyl-8-(2-oxopyrrolidin-1-yl)-5H-chromeno[4,3-c]pyridin-3-yl)amino)-6,6a,7,8-tetrahydro-9H-pyrido[2,3-b]pyrrolo[1,2-d][1,4]oxazin-9-one]	≤ 1	1 to 10
CC1Oc2cc(N3CCCC3=O)c(F)cc2-c2cnc(Nc3cncc(N4CCNC4=O)c3)cc21 (stereo not drawn) [Example 151, 1-(5-((9-fluoro-5-methyl-8-(2-oxopyrrolidin-1-yl)-5H-chromeno[4,3-c]pyridin-3-yl)amino)pyridin-3-yl)imidazolidin-2-one]	1 to 10	10 to 100
CC1Oc2cc(N3CCCC3=O)ccc2-c2cnc(Nc3cncc(NC(=O)Nc4ccccn4)c3)cc21 (stereo not drawn) [Example 102, 1-(5-((5-methyl-8-(2-oxopyrrolidin-1-yl)-5H-chromeno[4,3-c]pyridin-3-yl)amino)pyridin-3-yl)-3-(pyridin-2-yl)urea]	1 to 10	10 to 100
CC1Oc2cc(N3CCCC3=O)c(F)cc2-c2cnc(Nc3cnc4c(c3)N3C(=O)C5(CC5)C[C@H]3CO4)cc21 (stereo partly drawn) [Example 154, (6a′S)-2′-((9-fluoro-5-methyl-8-(2-oxopyrrolidin-1-yl)-5H-chromeno[4,3-c]pyridin-3-yl)amino)-6a′,7′-dihydro-6′H,9′H-spiro[cyclopropane-1,8′-pyrido[2,3-b]pyrrolo[1,2-d][1,4]oxazin]-9′-one]	≤ 1	1 to 10
CC1Oc2cc(N3CCCC3=O)ccc2-c2cnc(Nc3cncc(NC(=O)CCC(=O)O)c3)cc21 (stereo not drawn) [Example 105, 4-((5-((5-methyl-8-(2-oxopyrrolidin-1-yl)-5H-chromeno[4,3-c]pyridin-3-yl)amino)pyridin-3-yl)amino)-4-oxobutanoic acid]	1 to 10	10 to 100
CC1Oc2cc(N3CCCC3=O)ccc2-c2cnc(Nc3cnc4c(c3)N3C(=O)[C@](C)(O)C[C@H]3CO4)cc21 (stereo partly drawn) [Example 205, (6aS,8R)-8-hydroxy-8-methyl-2-((5-methyl-8-(2-oxopyrrolidin-1-yl)-5H-chromeno[4,3-c]pyridin-3-yl)amino)-6,6a,7,8-tetrahydro-9H-pyrido[2,3-b]pyrrolo[1,2-d][1,4]oxazin-9-one]	10 to 100	10 to 100

The next lines start with the values.

IC50 (PIP4K 2A) [nM]	IC50 (PIP4K2B) [nM]	SMILES
≤ 1	1 to 10	COc1cccc(C(=O)Nc2cncc(Nc3cc4c(cn3)-c3ccc(N5CCCC5=O)cc3OC4C)c2)c1 (stereo not drawn) [Example 121, 3-methoxy-N-(5-((5-methyl-8-(2-oxopyrrolidin-1-yl)-5H-chromeno[4,3-c]pyridin-3-yl)amino)pyridin-3-yl)benzamide]
1 to 10	> 1000	CC1Oc2cc(N3CCCC3=O)ccc2-c2cnc(Nc3cncc(NC(=O)c4cccc(F)c4)c3)cc21 (stereo not drawn) [Example 120, 3-fluoro-N-(5-((5-methyl-8-(2-oxopyrrolidin-1-yl)-5H-chromeno[4,3-c]pyridin-3-yl)amino)pyridin-3-yl)benzamide]
1 to 10	10 to 100	CC1Oc2cc(N3CCCC3=O)ccc2-c2cnc(Nc3cncc(NC(=O)c4ccn5ccnc5c4)c3)cc21 (stereo not drawn) [Example 147, N-(5-((5-methyl-8-(2-oxopyrrolidin-1-yl)-5H-chromeno[4,3-c]pyridin-3-yl)amino)pyridin-3-yl)imidazo[1,2-a]pyridine-7-carboxamide]
1 to 10	1 to 10	CN(C)C/C=C/C(=O)Nc1ccc(C(=O)Nc2cncc(Nc3cc4c(cn3)-c3ccc(N5CCCC5=O)cc3OC4(C)C)c2)cc1 [Example 198, (E)-N-(5-((5,5-dimethyl-8-(2-oxopyrrolidin-1-yl)-5H-chromeno[4,3-c]pyridin-3-yl)amino)pyridin-3-yl)-4-(4-(dimethylamino)but-2-enamido)benzamide]
1 to 10	1 to 10	CN(C)C/C=C/C(=O)Nc1ccc(C(=O)Nc2cncc(Nc3cc4c(cn3)-c3ccc(N5CCCC5=O)cc3OC4)c2)cc1 [Example 200, (E)-4-(4-(dimethylamino)but-2-enamido)-N-(5-((8-(2-oxopyrrolidin-1-yl)-5H-chromeno[4,3-c]pyridin-3-yl)amino)pyridin-3-yl)benzamide]
1 to 10	1 to 10	CC1Oc2cc(N3CCCC3=O)ccc2-c2cnc(Nc3cncc(NC(=O)CCc4cccc(NC(=O)CCCN(C)C)c4)c3)cc21 (stereo not drawn) [Example 177, 4-(dimethylamino)-N-(3-(3-((5-((5-methyl-8-(2-oxopyrrolidin-1-yl)-5H-chromeno[4,3-c]pyridin-3-yl)amino)pyridin-3-yl)amino)-3-oxopropyl)phenyl)butanamide]
10 to 100	10 to 100	CN1CCN(c2cncc(Nc3cc4c(cn3)-c3ccc(N5CCCC5=O)cc3OC4(C)C)c2)S1(=O)=O [Example 186, 1-(5,5-dimethyl-3-((5-(5-methyl-1,1-dioxido-1,2,5-thiadiazolidin-2-yl)pyridin-3-yl)amino)-5H-chromeno[4,3-c]pyridin-8-yl)pyrrolidin-2-one]
≤ 1	1 to 10	CC1Oc2cc(N3CCCC3=O)ccc2-c2cnc(Nc3cncc(NC(=O)c4ccnc(N)c4)c3)cc21 (stereo not drawn) [Example 115, 2-amino-N-(5-((5-methyl-8-(2-oxopyrrolidin-1-yl)-5H-chromeno[4,3-c]pyridin-3-yl)amino)pyridin-3-yl)isonicotinamide]
